Data published in the supplement of paper PMC11061612.

Experiments:
Capivasertib = compound: C1CN(CCC1(C(=O)N[C@@H](CCO)C2=CC=C(C=C2)Cl)N)C3=NC=NC4=C3C=CN4 [Capivasertib]
Procedure, shortened: (§1)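 Cancer cell lines were plated in 1536-well plates in 7.5 μl of DMEM/F12 or RPMI with 10% FBS and kept 24 hours at 37°C and 5% CO2 before 72 hours of dosing, with final DMSO typically 0.2%. CellTiter-Glo 2.0 luminescence measured viability, scaled between blank-well and DMSO-well means. Dose responses were fitted to a two-parameter logistic curve with a non-linear mixed effects model. This fit gives the single-agent IC50.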

AZD1775 = compound: C=CCn1c(=O)c2cnc(Nc3ccc(N4CCN(C)CC4)cc3)nc2n1-c1cccc(C(C)(C)O)n1 [AZD1775]; conditions: max 3 µM
Procedure, shortened: as §1

Trametinib = compound: CC(=O)Nc1cccc(-n2c(=O)n(C3CC3)c(=O)c3c(Nc4ccc(I)cc4F)n(C)c(=O)c(C)c32)c1 [Trametinib]; conditions: max 1 µM
Procedure, shortened: as §1

Palbociclib = compound: CC(=O)c1c(C)c2cnc(Nc3ccc(N4CCNCC4)cn3)nc2n(C2CCCC2)c1=O [Palbociclib]; conditions: max 10 µM
Procedure, shortened: as §1

AZD1390 = compound: CC(C)n1c(=O)n(C)c2cnc3cc(F)c(-c4ccc(OCCCN5CCCCC5)nc4)cc3c21 [AZD1390]; conditions: max 0.3 µM
Procedure, shortened: as §1

Venetoclax = compound: CC1(C)CCC(CN2CCN(c3ccc(C(=O)NS(=O)(=O)c4ccc(NCC5CCOCC5)c([N+](=O)[O-])c4)c(Oc4cnc5[nH]ccc5c4)c3)CC2)=C(c2ccc(Cl)cc2)C1 [Venetoclax]; conditions: max 1 µM
Procedure, shortened: as §1

Dasatinib = compound: CC1=C(C(=CC=C1)Cl)NC(=O)C2=CN=C(S2)NC3=CC(=NC(=N3)C)N4CCN(CC4)CCO [Dasatinib]; conditions: max 2 µM
Procedure, shortened: as §1

SG3199 = compound: CC1=CN2[C@@H](C1)C=NC3=CC(=C(C=C3C2=O)OC)OCCCCCOC4=C(C=C5C(=C4)N=C[C@@H]6CC(=CN6C5=O)C)OC [SG3199]; conditions: max 0.001 µM
Procedure, shortened: as §1

AZD2811 = compound: CCN(CCO)CCCOc1ccc2c(Nc3cc(CC(=O)Nc4cccc(F)c4)[nH]n3)ncnc2c1 [AZD2811]; conditions: max 1 µM
Procedure, shortened: as §1

SN-38 = compound: CCc1c2c(nc3ccc(O)cc13)-c1cc3c(c(=O)n1C2)COC(=O)[C@]3(O)CC [SN-38]; conditions: max 0.3 µM
Procedure, shortened: as §1

AZD0156 = compound: CN(C)CCCOc1ccc(-c2ccc3ncc4c(c3c2)n(C2CCOCC2)c(=O)n4C)cn1 [AZD0156]; conditions: max 3 µM
Procedure, shortened: as §1

AZD4320 = compound: CN(CC[C@H](CSC1=CC=CC=C1)NC2=C(C=C(C=C2)S(=O)(=O)NC(=O)C3=CC=C(C=C3)N4CCC(CC4)[C@H](C5=CC=CC=C5C6=CC=C(C=C6)Cl)O)S(=O)(=O)C(F)(F)F)CCO [AZD4320]; conditions: max 1 µM
Procedure, shortened: as §1

Alisertib = compound: COc1cc(Nc2ncc3c(n2)-c2ccc(Cl)cc2C(c2c(F)cccc2OC)=NC3)ccc1C(=O)O [Alisertib]; conditions: max 10 µM
Procedure, shortened: as §1

Gefitinib = compound: COc1cc2ncnc(Nc3ccc(F)c(Cl)c3)c2cc1OCCCN1CCOCC1 [Gefitinib]; conditions: max 10 µM
Procedure, shortened: as §1

Prexasertib = compound: COc1cccc(OCCCN)c1-c1cc(Nc2cnc(C#N)cn2)n[nH]1 [Prexasertib]; conditions: max 1 µM
Procedure, shortened: as §1

Doxorubicin = compound: COc1cccc2c1C(=O)c1c(O)c3c(c(O)c1C2=O)C[C@@](O)(C(=O)CO)C[C@@H]3O[C@H]1C[C@H](N)[C@H](O)[C@H](C)O1 [Doxorubicin]; conditions: max 1 µM
Procedure, shortened: as §1

AZD5153 = compound: COc1nnc2ccc(N3CCC(c4ccc(OCCN5CCN(C)C(=O)[C@H]5C)cc4)CC3)nn12 [AZD5153]; conditions: max 1 µM
Procedure, shortened: as §1

Lapatinib = compound: CS(=O)(=O)CCNCc1ccc(-c2ccc3ncnc(Nc4ccc(OCc5cccc(F)c5)c(Cl)c4)c3c2)o1 [Lapatinib]; conditions: max 10 µM
Procedure, shortened: as §1

AZD8186 = compound: C[C@@H](Nc1cc(F)cc(F)c1)c1cc(C(=O)N(C)C)cc2c(=O)cc(N3CCOCC3)oc12 [AZD8186]; conditions: max 3 µM
Procedure, shortened: as §1

Crizotinib = compound: C[C@@H](Oc1cc(-c2cnn(C3CCNCC3)c2)cnc1N)c1c(Cl)ccc(F)c1Cl [Crizotinib]; conditions: max 10 µM
Procedure, shortened: as §1

Savolitinib = compound: C[C@@H](c1ccc2nccn2c1)n1nnc2ncc(-c3cnn(C)c3)nc21 [Savolitinib]; conditions: max 1 µM
Procedure, shortened: as §1

AZD6738 = compound: C[C@@H]1COCCN1C2=NC(=NC(=C2)C3(CC3)[S@](=N)(=O)C)C4=C5C=CNC5=NC=C4 [AZD6738]; conditions: max 10 µM
Procedure, shortened: as §1

AZD5991 = compound: Cc1c2c(nn1C)CSCc1cc(n(C)n1)CSc1cc(c3ccccc3c1)OCCCc1c(C(=O)O)n(C)c3c-2c(Cl)ccc13 [AZD5991]; conditions: max 1 µM
Procedure, shortened: as §1

AZD7648 = compound: Cc1cc2ncnn2cc1Nc1ncc2c(n1)n(C1CCOCC1)c(=O)n2C [AZD7648]; conditions: max 10 µM
Procedure, shortened: as §1

Taselisib = compound: Cc1nc(-c2cn3c(n2)-c2ccc(-c4cnn(C(C)(C)C(N)=O)c4)cc2OCC3)n(C(C)C)n1 [Taselisib]; conditions: max 10 µM
Procedure, shortened: as §1

Selumetinib = compound: Cn1cnc2c(F)c(Nc3ccc(Br)cc3Cl)c(C(=O)NOCCO)cc21 [Selumetinib]
Procedure, shortened: as §1

Olaparib = compound: O=C(c1cc(Cc2n[nH]c(=O)c3ccccc23)ccc1F)N1CCN(C(=O)C2CC2)CC1 [Olaparib]; conditions: max 10 µM
Procedure, shortened: as §1

Cell Line	IC50, cell viability 72 h (Capivasertib; max 10 µM) [nM]	IC50, cell viability 72 h (AZD1775) [nM]	IC50, cell viability 72 h (Trametinib) [nM]	IC50, cell viability 72 h (Palbociclib) [nM]	IC50, cell viability 72 h (AZD1390) [nM]	IC50, cell viability 72 h (Venetoclax) [nM]	IC50, cell viability 72 h (Dasatinib) [nM]	IC50, cell viability 72 h (SG3199) [nM]	IC50, cell viability 72 h (AZD2811) [nM]	IC50, cell viability 72 h (SN-38) [nM]	IC50, cell viability 72 h (AZD0156) [nM]	IC50, cell viability 72 h (AZD4320) [nM]	IC50, cell viability 72 h (Alisertib) [nM]	IC50, cell viability 72 h (Gefitinib) [nM]	IC50, cell viability 72 h (Prexasertib) [nM]	IC50, cell viability 72 h (Doxorubicin) [nM]	IC50, cell viability 72 h (AZD5153) [nM]	IC50, cell viability 72 h (Lapatinib) [nM]	IC50, cell viability 72 h (AZD8186) [nM]	IC50, cell viability 72 h (Crizotinib) [nM]	IC50, cell viability 72 h (Savolitinib) [nM]	IC50, cell viability 72 h (AZD6738) [nM]	IC50, cell viability 72 h (AZD5991) [nM]	IC50, cell viability 72 h (AZD7648) [nM]	IC50, cell viability 72 h (Taselisib) [nM]	IC50, cell viability 72 h (Selumetinib; max 10 µM) [nM]	IC50, cell viability 72 h (Olaparib) [nM]	IC50, cell viability 72 h (Capivasertib; max 3 µM) [nM]	IC50, cell viability 72 h (Selumetinib; max 3 µM) [nM]
C-4-I (Cervical Carcinoma)	> 10000	195	773	> 10000	> 300	> 1000	> 2000	> 1	> 1000	41	> 3000	> 1000	3420	> 10000	18.5	302	889	7230	> 3000	> 10000	> 1000	2520	288	> 10000	2550	> 10000	> 10000		
HOP-62 (Lung Adenocarcinoma)	> 10000	> 3000	200	> 10000	> 300	> 1000	956	> 1	> 1000	101	> 3000	> 1000	8660	> 10000	225	> 1000	243	> 10000	> 3000	> 10000	> 1000	> 10000	> 1000	> 10000	> 10000	8920	> 10000		
JVM-3 (B-Cell Non-Hodgkin's Lymphoma)		117	270			> 1000		> 1	> 1000	2.05	> 3000	80.9	1600		7.34	84.3			> 3000			4320	> 1000	> 10000	1610		> 10000	> 3000	1980
KMOE-2 (Acute Myeloid Leukemia)	> 10000	411	1.74	> 10000	> 300	> 1000	> 2000	> 1	> 1000	40	> 3000	409	465	> 10000	55.8	881	102	> 10000	> 3000	> 10000	> 1000	8120	773	> 10000	9870	104	> 10000		
NCI-H1915 (Non-Small Cell Lung Carcinoma)	> 10000	2870	34.7	> 10000	> 300	> 1000	567	> 1	> 1000	61.6	> 3000	> 1000	5150	> 10000	335	> 1000	> 1000	> 10000	> 3000	> 10000	> 1000	> 10000	> 1000	> 10000	> 10000	3910	> 10000		
NEC8 (Other Solid Carcinomas)	> 10000	558	> 1000	> 10000	> 300	> 1000	> 2000	> 1	> 1000	21.5	> 3000	> 1000	> 10000	> 10000	35.7	595	226	> 10000	> 3000	> 10000	> 1000	5760	> 1000	> 10000	> 10000	> 10000	> 10000		
OE19 (Esophageal Adenocarcinoma)	> 10000	> 3000	> 1000	> 10000	> 300	> 1000	> 2000	> 1	390	> 300	> 3000	> 1000	167	1360	105	> 1000	907	287	> 3000	3810	> 1000	4050	> 1000	> 10000	2180	> 10000	> 10000		
